Results from the NIST ThermoML archive (doi:10.1016/j.jct.2005.09.003).
± gives the expanded uncertainty stated by the source.

Assay: xn = mol fraction of the nth substance listed
Conditions: Liquid, x1 = 1

CCCCCCCC [octane] + CCCCCCCl
mass density [kg/m3]
Conditions	298.15 K	308.15 K	318.15 K	328.15 K
100 kPa	698.64 ± 0.61	690.43 ± 0.63	682.47 ± 0.65	674.53 ± 0.66
2130 kPa	700.14 ± 0.71	692.18 ± 0.73	684.48 ± 0.74	676.49 ± 0.76
4150 kPa	701.87 ± 0.8	694 ± 0.82	686.45 ± 0.83	678.56 ± 0.85
6180 kPa	703.56 ± 0.88	695.79 ± 0.9	688.29 ± 0.92	680.59 ± 0.95
8210 kPa	705.17 ± 0.97	697.53 ± 0.99	690.17 ± 1	682.57 ± 1
10230 kPa	706.78 ± 1.1	699.24 ± 1.1	691.97 ± 1.1	684.51 ± 1.1
11250 kPa	707.58 ± 1.1	700.07 ± 1.1	692.85 ± 1.1	685.44 ± 1.2
12260 kPa	708.37 ± 1.1	700.88 ± 1.2	693.77 ± 1.2	686.38 ± 1.2
14290 kPa	709.9 ± 1.2	702.55 ± 1.2	695.49 ± 1.3	688.23 ± 1.3
16310 kPa	711.41 ± 1.3	704.13 ± 1.3	697.2 ± 1.4	690.03 ± 1.4
18340 kPa	712.9 ± 1.4	705.71 ± 1.4	698.86 ± 1.5	691.76 ± 1.5
20370 kPa	714.36 ± 1.5	707.23 ± 1.5	700.47 ± 1.5	693.5 ± 1.6
22390 kPa	715.78 ± 1.6	708.76 ± 1.6	702.07 ± 1.6	695.17 ± 1.7
24420 kPa	717.18 ± 1.6	710.22 ± 1.7	703.61 ± 1.7	696.82 ± 1.8
26450 kPa	718.56 ± 1.7	711.66 ± 1.8	705.13 ± 1.8	698.41 ± 1.8
28470 kPa	719.9 ± 1.8	713.09 ± 1.8	706.66 ± 1.9	699.98 ± 1.9
29490 kPa	720.57 ± 1.8	713.77 ± 1.9	707.38 ± 1.9	700.75 ± 2
30500 kPa	721.22 ± 1.9	714.47 ± 1.9	708.13 ± 2	701.53 ± 2
32530 kPa	722.53 ± 2	715.84 ± 2	709.54 ± 2	703.01 ± 2.1
34550 kPa	723.82 ± 2	717.18 ± 2.1	710.96 ± 2.1	704.5 ± 2.2
36580 kPa	725.06 ± 2.1	718.5 ± 2.2	712.33 ± 2.2	705.96 ± 2.2
38600 kPa	726.32 ± 2.2	719.82 ± 2.2	713.68 ± 2.3	707.36 ± 2.3
39620 kPa	726.94 ± 2.2	720.45 ± 2.3	714.38 ± 2.3	708.06 ± 2.4
